{
  "source": "ChEMBL document CHEMBL5661943",
  "about": "“ASAP - In vitro antiviral effect” (2024)",
  "key": {"Zika virus [1]": {"system": "Zika virus", "experiment": "EC50 is reported via analysis of immunofluorescence staining. The assay has been performed by Icahn School of Medicine at Mount Sinai.", "type": "functional, organism-based, Chlorocebus sabaeus, VeroE6/TMPRSS2", "settings": "for EC90: P-gp concentration 2 uM, P-gp inhibitor Elacidar"}, "dengue virus type 2 [2]": {"system": "dengue virus type 2", "experiment": "Functional assay to measure dose dependent changes in antiviral-drug inhibitory efficacy against Dengue virus type 2 New Guinea C in Vero E6 miRFP670 cells (cotreated with P-gp inhibitor, CP100356). Cells are treated with antiviral candidates that are serially diluted, following infection, cells are fixed. EC50 is reported via analysis of fluorescence intensity using high-content imager. The …", "type": "organism-based, Chlorocebus sabaeus, Vero C1008", "settings": "Dengue virus, Vero C1008; for EC90: Baseline response 0 %, Maximum response 100 %, P-gp concentration 500 nM, P-gp inhibitor CP100356"}, "dengue virus type 2 [3]": {"system": "dengue virus type 2", "experiment": "Functional immunofluorescence assay to measure dose dependent changes in antiviral-drug inhibitory efficacy against Dengue virus type 2 Thailand/16681/84 in Vero E6/TMPRSS2 cells (cotreated with P-gp inhibitor, Elacridar). Cells are treated with antiviral candidates that are serially diluted, following infection, cells are fixed. EC50 is reported via analysis of immunofluorescence staining. The assay has been performed by Icahn School of Medicine at Mount Sinai.", "type": "organism-based, Chlorocebus sabaeus, VeroE6/TMPRSS2", "settings": "Dengue virus"}, "Zika virus [4]": {"system": "Zika virus", "experiment": "Functional CPE-based assay to measure dose dependent changes in antiviral-drug inhibitory efficacy against Zika virus MR766 in Vero E6 miRFP670 cells (cotreated with P-gp inhibitor, CP100356). Cells are treated with antiviral candidates that are serially diluted. EC50 is reported via analysis of MTS assay as a readout of CPE. The assay has been performed by KU Leuven.", "type": "organism-based, Chlorocebus sabaeus, Vero C1008", "settings": "Zika virus; for EC90: P-gp concentration 500 nM, P-gp inhibitor CP100356"}},
  "data": [
    {"smiles": "O=C(Nc1ccc2c(c1)CNC2)c1cc(C(F)(F)F)cc2[nH]ccc12", "values": [
      {"measurement": "EC50", "setting": "Zika virus [1]; Zika virus, VeroE6/TMPRSS2", "result": "> 50", "unit": "µM"},
      {"measurement": "EC90", "setting": "Zika virus [1]; Zika virus, VeroE6/TMPRSS2, Maximum measured 116.047 %, Minimum measured 72.993 %", "result": "> 50", "unit": "µM"},
      {"measurement": "EC50", "setting": "dengue virus type 2 [2]", "result": "> 50", "unit": "µM"},
      {"measurement": "EC90", "setting": "dengue virus type 2 [2]; Hill slope -0.556, Maximum measured 107.588 %, Minimum measured 39.301 %, R squared 0.196", "result": "> 50", "unit": "µM"},
      {"measurement": "EC50", "setting": "dengue virus type 2 [3]; VeroE6/TMPRSS2", "result": "> 16.7", "unit": "µM"},
      {"measurement": "EC90", "setting": "dengue virus type 2 [3]; VeroE6/TMPRSS2, Baseline response 0 %, Hill slope -15.878, Maximum measured 193.651 %, Maximum response 148.635 %, Minimum measured 63.423 %, P-gp concentration 2 uM, R squared 0.446, P-gp inhibitor Elacidar", "result": "> 16.7", "unit": "µM"},
      {"measurement": "EC50", "setting": "Zika virus [4]; Vero C1008", "result": 45.6, "unit": "µM"},
      {"measurement": "EC90", "setting": "Zika virus [4]; Vero C1008, Baseline response 0 %, Hill slope 3.148, Maximum measured 56.87 %, Maximum response 100 %, Minimum measured -2.102 %, R squared 0.945", "result": "> 50", "unit": "µM"}
    ]},
    {"smiles": "CC(=O)Nc1cc(Br)cc(C(=O)Nc2ccc3c(c2)CNC3)c1", "values": [
      {"measurement": "EC90", "setting": "Zika virus [1]; Baseline response 0 %, Hill slope -0.518, Maximum measured 97.567 %, Maximum response 50 %, Minimum measured 37.703 %, R squared 0.045", "result": "> 50", "unit": "µM"},
      {"measurement": "EC50", "setting": "Zika virus [1]; Zika virus, VeroE6/TMPRSS2", "result": "> 50", "unit": "µM"},
      {"measurement": "EC90", "setting": "Zika virus [1]; Zika virus, VeroE6/TMPRSS2, Baseline response 0 %, Hill slope -0.196, Maximum measured 132.114 %, Maximum response 100 %, Minimum measured 61.615 %, R squared 0.024", "result": "> 50", "unit": "µM"},
      {"measurement": "EC50", "setting": "dengue virus type 2 [2]", "result": "> 50", "unit": "µM"},
      {"measurement": "EC90", "setting": "dengue virus type 2 [2]; Hill slope 0.424, Maximum measured 105.264 %, Minimum measured 74.207 %, R squared 0.146", "result": "> 50", "unit": "µM"},
      {"measurement": "EC50", "setting": "dengue virus type 2 [3]; VeroE6/TMPRSS2", "result": "> 50", "unit": "µM"},
      {"measurement": "EC90", "setting": "dengue virus type 2 [3]; VeroE6/TMPRSS2, Maximum measured 175.614 %, Minimum measured 132.324 %, P-gp concentration 2 uM, P-gp inhibitor Elacidar", "result": "> 50", "unit": "µM"},
      {"measurement": "EC50", "setting": "Zika virus [4]; Vero C1008", "result": "> 50", "unit": "µM"},
      {"measurement": "EC90", "setting": "Zika virus [4]; Vero C1008, Baseline response 0 %, Hill slope -0.049, Maximum measured 5.994 %, Maximum response 100 %, Minimum measured 2.41 %, R squared 0.015", "result": "> 50", "unit": "µM"}
    ]},
    {"smiles": "O=C(NC[C@H]1CCCO1)[C@H](Nc1ccc2c(c1)CNC2)c1cc(Cl)cc(C2CC2)c1", "values": [
      {"measurement": "EC50", "setting": "Zika virus [1]; Zika virus, VeroE6/TMPRSS2", "result": "> 5.56", "unit": "µM"},
      {"measurement": "EC90", "setting": "Zika virus [1]; Zika virus, VeroE6/TMPRSS2, Maximum measured 140.093 %, Minimum measured 93.076 %", "result": "> 5.56", "unit": "µM"},
      {"measurement": "EC90", "setting": "Zika virus [1]; Zika virus, VeroE6/TMPRSS2, Baseline response 0 %, Hill slope 0.091, Maximum measured 92.664 %, Maximum response 100 %, Minimum measured 73.777 %, R squared 0.029", "result": "> 5.56", "unit": "µM"},
      {"measurement": "EC50", "setting": "dengue virus type 2 [2]", "result": "> 50", "unit": "µM"},
      {"measurement": "EC90", "setting": "dengue virus type 2 [2]; Hill slope -0.736, Maximum measured 108.993 %, Minimum measured 54.851 %, R squared 0.259", "result": "> 50", "unit": "µM"},
      {"measurement": "EC50", "setting": "dengue virus type 2 [3]; VeroE6/TMPRSS2", "result": "> 50", "unit": "µM"},
      {"measurement": "EC90", "setting": "dengue virus type 2 [3]; VeroE6/TMPRSS2, Maximum measured 244.293 %, Minimum measured 137.827 %, P-gp concentration 2 uM, P-gp inhibitor Elacidar", "result": "> 50", "unit": "µM"},
      {"measurement": "EC50", "setting": "Zika virus [4]; Vero C1008", "result": "> 25", "unit": "µM"},
      {"measurement": "EC90", "setting": "Zika virus [4]; Vero C1008, Baseline response 0 %, Hill slope 2.187, Maximum measured 41.665 %, Maximum response 100 %, Minimum measured -0.442 %, R squared 0.938", "result": "> 25", "unit": "µM"}
    ]},
    {"smiles": "O=C(Nc1ccc2c(c1)CCNCC2)c1cc(Cl)cc2[nH]ncc12", "values": [
      {"measurement": "EC50", "setting": "Zika virus [1]; Zika virus, VeroE6/TMPRSS2", "result": "> 50", "unit": "µM"},
      {"measurement": "EC90", "setting": "Zika virus [1]; Zika virus, VeroE6/TMPRSS2, Maximum measured 112.155 %, Minimum measured 46.888 %", "result": "> 50", "unit": "µM"},
      {"measurement": "EC50", "setting": "dengue virus type 2 [2]", "result": "> 25", "unit": "µM"},
      {"measurement": "EC90", "setting": "dengue virus type 2 [2]; Hill slope -0.681, Maximum measured 107.454 %, Minimum measured 77.093 %, R squared 0.152", "result": "> 25", "unit": "µM"},
      {"measurement": "EC50", "setting": "dengue virus type 2 [3]; VeroE6/TMPRSS2", "result": "> 50", "unit": "µM"},
      {"measurement": "EC90", "setting": "dengue virus type 2 [3]; VeroE6/TMPRSS2", "result": "> 50", "unit": "µM"},
      {"measurement": "EC50", "setting": "Zika virus [4]; Vero C1008", "result": "> 50", "unit": "µM"},
      {"measurement": "EC90", "setting": "Zika virus [4]; Vero C1008, Maximum measured -0.637 %, Minimum measured -2.713 %", "result": "> 50", "unit": "µM"}
    ]}
  ]
}
